The record followed here is patent publication US20090311348A1, “PHARMECEUTICAL AND COSMETIC USE OF SILICA” (priority 2006, published 2009).

Entries after “also recorded” stand apart in the source; their conditions may differ.

Type in all cases: cell-based
One assay deals with Loricrin. In words: Induction of differentiation marker loricrin in human epidermal keratinocytes (real time RT-PCR). As to conditions: NHEK, several concentrations. As for the experimental part:
(§1) Silica mud precipitate was obtained from a natural source (Blue Lagoon geothermal basin, Svartsengi, Iceland). Sodium metasilicate was obtained from Prof. Dr. G. Lehmann, Biochemistry, Regensburg University. As control a ceramide mix (10 μM) was used to induce the differentiation markers.
(§2) Long term cultured normal human epidermal keratinocytes, NHEK, prepared from neonatal foreskin are cultured in Keratinocyte SFM (Invitrogen™, Heidelberg, Germany) supplemented with bovine pituitary extract (Invitrogen, Heidelberg, Germany) and recombinant epidermal growth factor (Invitrogen, Heidelberg, Germany). Cells are propagated up to passage 2 or 3 at 37° C. and 5% CO2. For induction of differentiation NHEKs are seeded in 6-well plates and grown up to confluence and treated with several concentrations of the silica preparates.
(§3) Total RNA was isolated using RNeasy Total RNA Kits (Qiagen, Hilden, Germany). The RNA concentration was determined via photometric measurement at 260/280 (Biophotometer, Eppendorf AG, Hamburg, Germany). An aliquot of 10 ng RNA was used for cDNA synthesis. […]
(§4) PCR reactions were carried out on an opticon 1 (MJ Research, Waltham, Mass., USA) using SYBR Green® PCR Master Mix (Applied Biosystems, Darmstadt, Germany). Each sample was analyzed in double employing the universal protocol over 36 cycles. […]
On the technique in general: Real-time PCR tracks product formation cycle by cycle.

The test system of a further assay is collagen 1A1. In words: Collagen 1A1 gene expression in human dermal fibroblasts. As to conditions: real time RT-PCR. The source says: Human dermal fibroblasts, HDF, prepared from neonatal foreskin and cultured for 4 days until they reached confluence as described in Example 3.
The subject of a further assay is Filaggrin. The assay can be described thus: Induction of differentiation marker filaggrin in human epidermal keratinocytes (real time RT-PCR). As to conditions: NHEK, several concentrations. How it is done: as §1, §2, §3, §4
The test system of another assay is Involucrin. In words: Induction of differentiation marker involucrin in human epidermal keratinocytes (real time RT-PCR). The note with it: NHEK, several concentrations. How it is done: as §1, §2, §3, §4
Another assay relates to transglutaminase-1. In words: Induction of differentiation marker transglutaminase-1 in human epidermal keratinocytes (real time RT-PCR). The note with it: NHEK, several concentrations. How it is done:
as §1, §2, §3, §4

Turning to `O=[Si]([O-])[O-].[Na+].[Na+]` [sodium metasilicate], the expression of loricrin result with Loricrin was “induced”. The “collagen 1A1 gene expression” value in the assay on collagen 1A1 was “did not show any increase”. In addition, in the assay on Filaggrin, the expression of filaggrin entry is “substantial up-regulation; also recorded: induced; also recorded: stronger than with silica mud”. Also, in the assay with Involucrin, the expression of involucrin entry is “substantial up-regulation; also recorded: induced”. The “expression of transglutaminase-1” value in the assay with transglutaminase-1 is reported as “substantial up-regulation; also recorded: induced”.
